# From US10017480B2, “Compounds having a selective PDE4D inhibiting activity” (UNIVERSITÂ DEGLI STUDI DI GENOVA, priority 2014, dated 2018)
# What was measured:
# PDE4A4 = PDE4A4 (Homo sapiens, UniProt P27815); test: PDE4A4 enzyme inhibition (IMAP); format: biochemical; details: 10 μM
# Procedure: (§1) Compound's evaluation on PDE4D3, PDE4A4, PDE4B2 and PDE4C2 enzyme assays were performed by Scottish Biomedical (Glasgow, Scotland, UK) using recombinant human PDE enzymes expressed in a baculoviral system. The preliminary screening assays were performed by the IMAP technology (Molecular Devices), which is based on the high affinity binding of phosphate by immobilized metal coordination complexes on nanoparticles. The binding reagent complexes with phosphate groups on nucleotide monophosphate generated from cyclic nucleotides (cAMP) through phosphodiesterases. With fluorescence polarization detection, binding causes a change in the rate of the molecular motion of the phosphate bearing molecule and results in an increase in the fluorescence polarization value observed for the fluorescent label attached to the substrate. […] All compounds were solved in DMSO at 10^−2 M concentration and then diluted with water to the final suitable concentrations. All synthesized compounds were tested preliminary on PDE4D3 at 10^−5 M concentration, in duplicate. Results are expressed as a percent inhibition of control activity (see table 1).
# (§2) The IC50 values obtained for the reference compounds are within accepted limits of historic averages obtained (0.5 log unit). IC50 values are reported at μM concentration in table 1. […] The results are reported (as percent of inhibition at 10 μM concentration) in Table 1.
# HTLA cells = test: Genotoxicity, Western blot of γ-H2AX; format: cell-based, human; details: 100 μM
# Text: To evaluate the genotoxic potential of XVIIIa and GEBR-7b, we analyzed the phosphorylation of the chromatin-bound histone H2AX (γ-H2AX), which is a quantitative marker for the DNA damage response at the site of double-strand breaks.
# The H2AX signal represents the internal loading control.
# PDE4D3 = PDE4D3 (Homo sapiens, UniProt Q08499); test: PDE4D3 enzyme inhibition (IMAP); format: biochemical
# PDE4D3, sequence (Q08499 1-673 isoform Q08499-2): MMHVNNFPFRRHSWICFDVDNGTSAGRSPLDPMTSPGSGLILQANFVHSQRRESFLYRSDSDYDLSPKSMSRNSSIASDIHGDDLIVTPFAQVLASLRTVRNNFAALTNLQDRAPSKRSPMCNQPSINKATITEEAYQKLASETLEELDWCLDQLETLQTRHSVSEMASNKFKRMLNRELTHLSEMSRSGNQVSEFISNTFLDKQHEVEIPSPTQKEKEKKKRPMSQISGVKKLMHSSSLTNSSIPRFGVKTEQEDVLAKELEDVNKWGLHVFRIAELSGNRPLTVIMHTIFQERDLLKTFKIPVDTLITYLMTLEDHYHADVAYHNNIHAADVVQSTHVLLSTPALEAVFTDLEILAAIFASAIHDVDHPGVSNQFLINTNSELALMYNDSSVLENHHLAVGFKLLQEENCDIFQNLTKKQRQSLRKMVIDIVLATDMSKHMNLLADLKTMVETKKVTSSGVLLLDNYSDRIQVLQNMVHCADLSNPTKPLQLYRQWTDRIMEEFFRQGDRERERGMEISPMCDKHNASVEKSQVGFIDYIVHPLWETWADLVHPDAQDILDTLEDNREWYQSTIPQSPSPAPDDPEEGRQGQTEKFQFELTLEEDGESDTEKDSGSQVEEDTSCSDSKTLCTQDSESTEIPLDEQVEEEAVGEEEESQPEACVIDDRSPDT
# Procedure: as §1
# IC50 values are reported at μM concentration in table 1. […] The results are reported (as percent of inhibition at 10 μM concentration) in Table 1.
# [1] = tested on: forskolin (FSK)-induced cAMP in neuronal cultured cells; test: In vitro cAMP-enhancing potential (EIA); details: 100 μM
# PDE4C2 = biological target: T1, PDE4C2 (Homo sapiens, UniProt Q08493); test: PDE4C2 enzyme inhibition (IMAP); format: biochemical
# T1 construct: purchased Scottish Biomedical (Glasgow, Scotland, UK); host or cells: baculoviral system
# T1 sequence (Q08493 107-712): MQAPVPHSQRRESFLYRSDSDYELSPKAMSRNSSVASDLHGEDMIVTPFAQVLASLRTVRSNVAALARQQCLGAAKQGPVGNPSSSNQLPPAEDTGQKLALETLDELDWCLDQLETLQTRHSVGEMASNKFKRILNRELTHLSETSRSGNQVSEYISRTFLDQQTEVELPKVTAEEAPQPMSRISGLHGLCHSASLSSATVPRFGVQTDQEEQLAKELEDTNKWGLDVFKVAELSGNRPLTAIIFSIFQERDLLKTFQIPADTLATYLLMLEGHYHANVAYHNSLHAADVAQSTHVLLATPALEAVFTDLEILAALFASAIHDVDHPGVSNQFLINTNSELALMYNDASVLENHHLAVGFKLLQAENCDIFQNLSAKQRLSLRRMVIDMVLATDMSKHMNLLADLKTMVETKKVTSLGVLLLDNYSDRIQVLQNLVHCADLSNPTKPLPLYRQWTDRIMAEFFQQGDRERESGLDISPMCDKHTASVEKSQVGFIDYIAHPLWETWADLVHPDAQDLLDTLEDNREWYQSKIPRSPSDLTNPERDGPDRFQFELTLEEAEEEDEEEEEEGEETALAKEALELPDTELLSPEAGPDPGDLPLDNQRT
# Procedure: as §1, §2
# PDE4B2 = biological target: T2, PDE4B2 (Homo sapiens, UniProt Q07343); test: PDE4B2 enzyme inhibition (IMAP); format: biochemical; details: 10 μM
# T2 construct: purchased Scottish Biomedical (Glasgow, Scotland, UK); host or cells: baculoviral system
# T2 sequence (Q07343 1-564 isoform Q07343-2): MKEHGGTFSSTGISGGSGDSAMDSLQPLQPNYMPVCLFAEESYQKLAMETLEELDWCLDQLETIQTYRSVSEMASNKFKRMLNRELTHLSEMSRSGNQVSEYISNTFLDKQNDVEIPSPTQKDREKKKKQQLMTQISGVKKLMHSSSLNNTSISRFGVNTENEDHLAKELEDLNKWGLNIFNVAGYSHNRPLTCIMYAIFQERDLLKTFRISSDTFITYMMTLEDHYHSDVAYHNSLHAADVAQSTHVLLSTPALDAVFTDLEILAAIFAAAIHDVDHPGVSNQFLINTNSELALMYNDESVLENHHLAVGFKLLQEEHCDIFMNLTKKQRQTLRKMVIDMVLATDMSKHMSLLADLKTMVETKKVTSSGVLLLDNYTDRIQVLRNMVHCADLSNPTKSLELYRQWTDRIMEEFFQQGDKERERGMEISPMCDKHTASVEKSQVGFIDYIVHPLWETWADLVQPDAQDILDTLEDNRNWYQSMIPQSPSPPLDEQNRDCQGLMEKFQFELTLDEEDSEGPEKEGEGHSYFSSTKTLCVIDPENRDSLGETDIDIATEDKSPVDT
# Procedure: as §1, §2
# PDE4D1 = PDE4D1 (Homo sapiens, UniProt Q08499); test: PDE4D1 enzyme inhibition (IMAP); format: biochemical
# PDE4D1, sequence (Q08499 1-584 isoform Q08499-4): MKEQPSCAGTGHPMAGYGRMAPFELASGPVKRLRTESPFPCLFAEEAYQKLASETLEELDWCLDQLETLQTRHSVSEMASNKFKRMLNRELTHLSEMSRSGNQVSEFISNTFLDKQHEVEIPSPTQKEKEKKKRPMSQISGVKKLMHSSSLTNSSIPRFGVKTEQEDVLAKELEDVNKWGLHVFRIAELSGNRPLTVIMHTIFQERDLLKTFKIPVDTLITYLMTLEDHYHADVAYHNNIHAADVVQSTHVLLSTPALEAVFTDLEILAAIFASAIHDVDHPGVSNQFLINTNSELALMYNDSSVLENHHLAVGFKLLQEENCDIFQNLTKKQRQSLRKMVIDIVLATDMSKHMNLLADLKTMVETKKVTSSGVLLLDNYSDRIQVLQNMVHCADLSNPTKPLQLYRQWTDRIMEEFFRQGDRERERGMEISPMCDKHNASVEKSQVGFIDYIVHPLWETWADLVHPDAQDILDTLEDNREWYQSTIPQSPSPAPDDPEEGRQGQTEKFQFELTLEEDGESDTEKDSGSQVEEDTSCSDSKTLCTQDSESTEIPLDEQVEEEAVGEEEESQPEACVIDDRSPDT
# [2] = tested on: hippocampal slices from Tg2576 mice and WT littermates; test: Electrophysiological study, LTP in hippocampal slices; details: 2 μM, bath, 20 minutes before theta burst stimulation
# Procedure: Compound XVIIIa was tested to determine whether PDE4D inhibition can revert the damage of synaptic function following Aβ elevation in Tg2576 mice.
# All experiments were performed with approval of the Columbia University IACUC Committe. The animals were 12 month old single transgenic mice expressing the human APP mutation (K670N,M671L) (a.k.a. Tg2576), as well as their WT littermates.
# Slice recordings were performed as described previously (Trinchese et al, Ann Neurol 2004). Briefly, 400-μm slices were cut with a tissue chopper and maintained in an interface chamber at 29° C. for 90 minutes prior to recording. CA1 fEPSPs were recorded by placing both the stimulating and the recording electrodes in CA1 stratum radiatum. Basal synaptic transmission was assayed either by plotting the stimulus voltages against slopes of fEPSP. For LTP experiments, a 10-minute baseline was recorded every minute at an intensity that evokes a response approximately 35% of the maximum evoked response. Baseline was followed by a 20 minute perfusion with the compound prior to eliciting LTP using θ-burst stimulation (4 pulses at 100 Hz, with the bursts repeated at 5 Hz, and each tetanus including 3 ten-burst trains separated by 15 seconds). […]
# [3] = Cytotoxicity, lactate-dehydrogenase release; format: cell-based; details: human, HTLA human neuronal cells
# Procedure: To evaluate the preliminary toxic profile of the molecule XVIIIa, we performed cytotoxicity and genotoxicity assays on human neuronal cells (HTLA). For the cytotoxic potential, we analyzed the lactate-dehydrogenase release in cells exposed for 24 hours to high concentrations (100 μM) of XVIIIa or GEBR-7b (lead compound—Bruno et al, Br. J. Pharm., 2011, 164:2054).
# PDE4D2 = PDE4D2 (Homo sapiens, UniProt Q08499); test: PDE4D2 enzyme inhibition (IMAP); format: biochemical
# PDE4D2, sequence (Q08499 303-809 limits assumed): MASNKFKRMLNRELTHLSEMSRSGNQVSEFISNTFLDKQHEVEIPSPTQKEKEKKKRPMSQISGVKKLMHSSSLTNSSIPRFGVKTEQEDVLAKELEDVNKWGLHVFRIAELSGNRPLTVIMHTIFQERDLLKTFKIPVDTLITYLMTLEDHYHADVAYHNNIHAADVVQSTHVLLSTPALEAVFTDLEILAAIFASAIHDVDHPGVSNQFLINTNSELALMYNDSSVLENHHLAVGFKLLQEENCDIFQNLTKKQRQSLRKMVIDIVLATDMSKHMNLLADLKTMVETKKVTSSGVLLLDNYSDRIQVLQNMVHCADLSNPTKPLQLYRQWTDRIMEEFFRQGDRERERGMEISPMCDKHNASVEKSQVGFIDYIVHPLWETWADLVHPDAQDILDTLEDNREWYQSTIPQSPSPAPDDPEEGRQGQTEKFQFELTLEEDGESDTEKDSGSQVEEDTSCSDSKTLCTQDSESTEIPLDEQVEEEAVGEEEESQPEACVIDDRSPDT
# [4] = Pharmacokinetic analysis, plasma and brain
# [5] = tested on: extracellular cAMP in the hippocampus of freely moving rats; test: In vivo cAMP-enhancing potential, intracerebral microdialysis
# Procedure: The in vivo effects of XVIIIa on extracellular cAMP levels in the hippocampus of freely moving rats were analyzed by means of intracerebral microdialysis.
# However, when the PDE4D inhibitor was infused at the concentration of 100 μM, a marked cAMP response could be observed (40-80% over basal values) as reported in FIG. 3. The effects of XVIIIa were similar to those previously reported for the PDE4D inhibitor GEBR-7b (lead compound; data taken from Bruno et al., Br. J. Pharmacol. 2011, 164, 2054-2063).
# XVIIIa or GEBR-7b were administered through the probe after 3 consecutive control samples had been collected and were present in the infusion fluid for the time indicated by the horizontal empty bar. Data are expressed as percentages of the mean basal value (defined 100%) that was determined by averaging the cAMP content in the three fractions collected before drug treatment. Each point represents the mean±SEM for 3-6 different experiments.
# [6] = male, BALB/c, mouse, brain, sc, 10 mg/kg
# [7] = male, BALB/c, mouse, plasma, sc, 10 mg/kg
# PDE4A4, sequence (P27815 whole entry): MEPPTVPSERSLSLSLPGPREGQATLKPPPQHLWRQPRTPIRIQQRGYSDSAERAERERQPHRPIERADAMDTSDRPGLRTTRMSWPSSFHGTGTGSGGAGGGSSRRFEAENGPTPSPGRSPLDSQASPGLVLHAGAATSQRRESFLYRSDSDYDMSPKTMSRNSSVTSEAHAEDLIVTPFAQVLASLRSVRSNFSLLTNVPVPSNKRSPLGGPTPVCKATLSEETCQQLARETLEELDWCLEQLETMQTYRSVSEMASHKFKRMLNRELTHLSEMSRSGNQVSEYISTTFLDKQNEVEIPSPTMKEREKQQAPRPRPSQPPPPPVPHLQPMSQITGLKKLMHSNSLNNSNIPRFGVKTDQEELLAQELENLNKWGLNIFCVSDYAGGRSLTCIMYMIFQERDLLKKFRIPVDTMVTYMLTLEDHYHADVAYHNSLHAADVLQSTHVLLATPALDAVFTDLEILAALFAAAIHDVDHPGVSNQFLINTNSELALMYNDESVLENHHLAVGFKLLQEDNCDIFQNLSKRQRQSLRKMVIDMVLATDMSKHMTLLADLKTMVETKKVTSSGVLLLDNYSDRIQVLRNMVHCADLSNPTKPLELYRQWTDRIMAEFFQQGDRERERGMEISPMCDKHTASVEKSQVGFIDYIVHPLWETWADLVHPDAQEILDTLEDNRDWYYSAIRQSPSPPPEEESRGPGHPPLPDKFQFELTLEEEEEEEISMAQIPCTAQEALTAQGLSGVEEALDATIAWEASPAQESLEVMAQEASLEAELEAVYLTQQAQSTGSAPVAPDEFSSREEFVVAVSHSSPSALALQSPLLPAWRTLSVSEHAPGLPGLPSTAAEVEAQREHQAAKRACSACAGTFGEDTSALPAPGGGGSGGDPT
structure (smiles),measurement,setting,value
"COc1ccc(-c2ccn(CC(O)CN3CCOCC3)n2)cc1OC1CCCC1 (stereo not drawn) [XVIIIa, 1-{3-[3-(Cyclopentyloxy)-4-methoxyphenyl]-1H-pyrazol-1-yl}-3-morpholin-4-ylpropan-2-ol dihydrocloride]",PDE4A4 % inib at 10 μM,PDE4A4,22%
same,DNA damage (γ-H2AX),HTLA cells,not observed
same,PDE4D3 % inib at 10 μM,"PDE4D3; 10 μM, in duplicate",68%
same,IC50,PDE4D3; five concentrations 10^−8-10^−4 M,7.6 µM
same,"accumulation of forskolin (FSK)-induced cAMP, fold induction","[1]; 10 min pre-treatment, then 1 μM FSK 20 min",3 fold
same,basal cAMP levels,[1]; without FSK,without affecting the basal cAMP levels
same,PDE4C2 % inib at 10 μM,PDE4C2,11%
same,PDE4B2 % inib at 10 μM,PDE4B2,18%
same,PDE4D1 % inib at 10 μM,PDE4D1,34%
same,LTP in WT littermates,[2],without affecting LTP
same,LTP in hippocampal slices from 12 month-old Tg mice,[2],rescued the defect in LTP
same,"cytotoxicity at 24 h, 100 µM",[3],3.3 ± 0.4%
same,PDE4D2 % inib at 10 μM,PDE4D2,28%
same,AUC0-t,"[4]; brain, male BALB/c mice, 10 mg/kg subcutaneously",812 ng·h/g
same,Cmax,[4]; [6],936 ng/g
same,Tmax,[4]; [6],10.2 min
same,half-life,[4]; [6],32.4 min
same,Kp,"[4]; male, BALB/c, mouse, in vivo, sc, 10 mg/kg",0.75
same,AUC0-t,[4]; [7],1890 ng·h/mL
same,Cmax,[4]; [7],2160 ng/mL
same,Tmax,[4]; [7],10.2 min
same,half-life,[4]; [7],49.2 min
same,hippocampal extracellular cAMP,[5]; 30 μM by reverse dialysis,"slight, though not significant, increase"
same,hippocampal extracellular cAMP response,[5]; 100 μM infused,40-80 % over basal values
